Values of other authors in paper PMC9516332 (Frontiers in Oncology, 2022).
Like-named read-outs stand apart in the source and are kept apart here.

Key:
Conditions in all cases: cited from earlier work
[1] = target: T1, panel of 255 wild-type kinases (Homo sapiens, UniProt Q12866)
T1 sequence (Q12866 21-999): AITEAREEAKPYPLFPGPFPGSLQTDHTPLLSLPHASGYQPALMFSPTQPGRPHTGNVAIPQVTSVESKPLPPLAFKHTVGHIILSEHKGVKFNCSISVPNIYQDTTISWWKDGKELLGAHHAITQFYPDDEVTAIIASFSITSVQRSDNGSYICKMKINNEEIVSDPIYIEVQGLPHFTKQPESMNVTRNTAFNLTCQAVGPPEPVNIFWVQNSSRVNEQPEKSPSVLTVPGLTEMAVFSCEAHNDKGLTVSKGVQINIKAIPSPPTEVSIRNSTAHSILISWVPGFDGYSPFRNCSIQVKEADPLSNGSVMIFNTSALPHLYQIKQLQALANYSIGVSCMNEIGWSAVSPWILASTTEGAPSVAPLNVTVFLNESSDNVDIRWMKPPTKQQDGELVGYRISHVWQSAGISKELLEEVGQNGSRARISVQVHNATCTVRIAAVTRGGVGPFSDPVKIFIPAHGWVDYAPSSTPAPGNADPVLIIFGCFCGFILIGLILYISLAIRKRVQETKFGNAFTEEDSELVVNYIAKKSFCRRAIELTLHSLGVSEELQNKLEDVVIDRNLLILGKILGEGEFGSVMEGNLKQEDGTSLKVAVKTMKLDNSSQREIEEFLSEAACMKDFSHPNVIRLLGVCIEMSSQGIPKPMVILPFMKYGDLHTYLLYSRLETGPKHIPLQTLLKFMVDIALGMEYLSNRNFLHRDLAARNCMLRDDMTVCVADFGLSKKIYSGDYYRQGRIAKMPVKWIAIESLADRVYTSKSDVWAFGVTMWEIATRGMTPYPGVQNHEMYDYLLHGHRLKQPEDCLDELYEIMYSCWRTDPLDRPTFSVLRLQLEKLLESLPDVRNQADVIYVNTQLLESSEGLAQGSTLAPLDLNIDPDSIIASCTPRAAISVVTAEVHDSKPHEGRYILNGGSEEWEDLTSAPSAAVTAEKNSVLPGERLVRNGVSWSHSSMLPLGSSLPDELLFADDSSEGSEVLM

[2] = target: panel of 255 wild-type kinases (Homo sapiens, UniProt Q00526)
[3] = target: T2, panel of 255 wild-type kinases (Homo sapiens, UniProt O00418)
T2 sequence (O00418 1-725): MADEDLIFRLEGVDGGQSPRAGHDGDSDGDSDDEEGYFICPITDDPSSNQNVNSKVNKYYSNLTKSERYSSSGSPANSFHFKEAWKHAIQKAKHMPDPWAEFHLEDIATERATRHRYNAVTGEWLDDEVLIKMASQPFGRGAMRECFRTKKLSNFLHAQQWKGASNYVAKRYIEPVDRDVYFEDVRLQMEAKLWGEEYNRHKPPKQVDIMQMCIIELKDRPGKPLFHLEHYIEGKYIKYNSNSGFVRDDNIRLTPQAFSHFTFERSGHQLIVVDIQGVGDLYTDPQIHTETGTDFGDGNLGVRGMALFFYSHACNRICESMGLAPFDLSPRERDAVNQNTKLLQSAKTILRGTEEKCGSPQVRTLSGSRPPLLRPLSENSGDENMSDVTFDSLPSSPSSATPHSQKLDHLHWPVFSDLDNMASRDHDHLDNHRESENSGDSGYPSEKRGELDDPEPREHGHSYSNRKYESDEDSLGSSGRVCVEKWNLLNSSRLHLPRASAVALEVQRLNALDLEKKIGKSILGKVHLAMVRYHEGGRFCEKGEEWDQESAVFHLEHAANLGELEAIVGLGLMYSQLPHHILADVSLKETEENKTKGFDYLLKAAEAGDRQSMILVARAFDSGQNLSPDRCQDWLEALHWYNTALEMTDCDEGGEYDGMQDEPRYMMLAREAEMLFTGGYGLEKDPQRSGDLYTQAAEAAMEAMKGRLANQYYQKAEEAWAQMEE

[4] = target: panel of 255 wild-type kinases (Homo sapiens, UniProt P51812)
[5] = target: panel of 255 wild-type kinases (Homo sapiens, UniProt Q9H422)
[6] = target: panel of 255 wild-type kinases (Homo sapiens, UniProt O43683)
[7] = target: panel of 255 wild-type kinases (Homo sapiens, UniProt P08581)
[8] = MER, 1 µmol/L single concentration, ref DOI: 10.1158/1535-7163.MCT-18-0877
[9] = CDK3/CycE1 kinase assay, 1 µmol/L single concentration, ref DOI: 10.1158/1535-7163.MCT-18-0877
[10] = kinase EEF2K, 1 µmol/L single concentration, ref DOI: 10.1158/1535-7163.MCT-18-0877
[11] = kinase RSK2, 1 µmol/L single concentration, ref DOI: 10.1158/1535-7163.MCT-18-0877
[12] = kinase HIPK3, 1 µmol/L single concentration, ref DOI: 10.1158/1535-7163.MCT-18-0877
[13] = BUB1/BUB3 kinase assay, 1 µmol/L single concentration, ref DOI: 10.1158/1535-7163.MCT-18-0877
[14] = MET, 1 µmol/L single concentration, ref DOI: 10.1158/1535-7163.MCT-18-0877
[15] = CDK3/CycE1 kinase assay, 1 µmol/L single concentration, ref DOI: 10.1371/journal.pone.0092146
[16] = kinase EEF2K, 1 µmol/L single concentration, ref DOI: 10.1371/journal.pone.0092146
[17] = kinase RSK2, 1 µmol/L single concentration, ref DOI: 10.1371/journal.pone.0092146
[18] = kinase HIPK3, 1 µmol/L single concentration, ref DOI: 10.1371/journal.pone.0092146
[19] = MER, 1 µmol/L single concentration, ref DOI: 10.1371/journal.pone.0092146
[20] = MET, 1 µmol/L single concentration, ref DOI: 10.1371/journal.pone.0092146

SMILES | %-inhibition, MER [1, 8] | %-inhibition CDK3/CycE1 [2, 9] | %-inhibition at 1 µmol/L, EEF2K [3, 10] | %-inhibition at 1 µmol/L, RSK2 [4, 11] | %-inhibition at 1 µmol/L, HIPK3 [5, 12] | %-inhibition BUB1/BUB3 [6, 13] | %-inhibition, MET [7, 14] | %-inhibition at 1 µmol/L, HIPK3 [5, 18] | other results
CC#CC(=O)N1CCC[C@H]1c1nc(-c2ccc(C(=O)Nc3ccccn3)cc2)c2c(N)nccn12 [acalabrutinib] | -3.37% | -6% | -12% | 0.054% | -12% | 5.51% | 4% |  | 
CCc1cc2c(cc1N1CCC(N3CCOCC3)CC1)C(C)(C)c1[nH]c3cc(C#N)ccc3c1C2=O [alectinib] | 56% | -2.74% | -0.237% | 14% | 3.19% | 2% | 8% |  | 
COc1cc(N2CCC(N3CCN(C)CC3)CC2)ccc1Nc1ncc(Cl)c(Nc2ccccc2P(C)(C)=O)n1 [brigatinib] |  |  |  |  |  |  |  |  | %-inhibition, MER [1]: 89%; %-inhibition CDK3/CycE1 [2]: 0.848%; %-inhibition at 1 µmol/L, EEF2K [3]: 2.53%; %-inhibition at 1 µmol/L, RSK2 [4]: 97%; %-inhibition at 1 µmol/L, HIPK3 [5]: 7%; %-inhibition BUB1/BUB3 [6]: 14%; %-inhibition, MET [7]: 41%
Cc1cc(Nc2ncc(Cl)c(Nc3ccccc3S(=O)(=O)C(C)C)n2)c(OC(C)C)cc1C1CCNCC1 [ceritinib] | 51% | -3.17% | 11% | 83% | 7.48% | 5.67% | 16% |  | 
O=C(c1ccc(F)c(F)c1Nc1ccc(I)cc1F)N1CC(O)([C@@H]2CCCCN2)C1 [cobimetinib] | 1.18% | 2.16% | -0.685% | 6% | 2.74% | 6.61% | 7% |  | 
C[C@@H](Oc1cc(-c2cnn(C3CCNCC3)c2)cnc1N)c1c(Cl)ccc(F)c1Cl [crizotinib] |  |  |  |  |  |  |  | -6% | %-inhibition CDK3/CycE1 [2, 15]: -5.68%; %-inhibition at 1 µmol/L, EEF2K [3, 16]: -4.6%; %-inhibition at 1 µmol/L, RSK2 [4, 17]: 0.217%
CC(C)(C)c1nc(-c2cccc(NS(=O)(=O)c3c(F)cccc3F)c2F)c(-c2ccnc(N)n2)s1 [dabrafenib] |  |  |  |  |  |  |  | 65% | %-inhibition, MER [1, 19]: -0.876%; %-inhibition, MET [7, 20]: 27%
C=CC(=O)N1CCC[C@@H](n2nc(-c3ccc(Oc4ccccc4)cc3)c3c(N)ncnc32)C1 [ibrutinib] | 0.565% | 0.486% | 1.15% | 7.41% | 1.67% | 5% | 12% |  | 
CO[C@@H]1[C@H](N(C)C(=O)c2ccccc2)C[C@H]2O[C@]1(C)n1c3ccccc3c3c4c(c5c6ccccc6n2c5c31)C(=O)NC4 [midostaurin] | 85% | 11% | -9% | 99% |  | 6.4% | 45% |  | 
C=CC(=O)Nc1cc(Nc2nccc(-c3cn(C)c4ccccc34)n2)c(OC)cc1N(C)CCN(C)C [osimertinib] | 10% | 22% | -0.355% | 42% | 20% | 11% | 12% |  | 
CC(=O)Nc1cccc(-n2c(=O)n(C3CC3)c(=O)c3c(Nc4ccc(I)cc4F)n(C)c(=O)c(C)c32)c1 [trametinib] |  |  |  |  |  |  |  | 0.0849% | %-inhibition, MER [1, 19]: -6.62%; %-inhibition CDK3/CycE1 [2, 15]: 0.16%; %-inhibition at 1 µmol/L, EEF2K [3, 16]: -3.43%; %-inhibition at 1 µmol/L, RSK2 [4, 17]: -1.76%; %-inhibition, MET [7, 20]: -2.41%
CCCS(=O)(=O)Nc1ccc(F)c(C(=O)c2c[nH]c3ncc(-c4ccc(Cl)cc4)cc23)c1F [vemurafenib] |  |  |  |  |  |  |  | -6% | %-inhibition, MER [1, 19]: 6%; %-inhibition CDK3/CycE1 [2, 15]: -4.34%; %-inhibition at 1 µmol/L, EEF2K [3, 16]: -5%; %-inhibition at 1 µmol/L, RSK2 [4, 17]: -2.31%; %-inhibition, MET [7, 20]: 3.67%
